From patent US20070128217A1 (priority 2003, published 2007)

What was measured:
[1] = test system: control sera (pooled serum of ten healthy LUMC hospital workers; commercial negative donor pooled serum from the Dutch bloodbank); format: binding, human; parameters: Binding of Control serum LUMC to linear peptides / Binding of Control serum Blood-bank to linear peptides / Binding of Control serum LUMC to looped peptides / Binding of Control Serum Blood-Bank to Looped peptides / Binding of Control serum LUMC to linear peptides of the protein M of SARS-CoV Urbani / Binding of Control serum Blood-bank to linear peptides of the protein M of SARS-CoV Urbani / Binding of Control serum LUMC to looped peptides of the protein M of SARS-CoV Urbani / Binding of Control Serum Blood-Bank to Looped peptides of the protein M of SARS-CoV Urbani: unit not given here
[2] = test system: rabbit serum obtained by immunizing a rabbit with the SARS-CoV strain Frankfurt 1; format: binding; parameters: Binding of a rabbit serum to linear peptides / Binding of a rabbit serum to looped peptides / Rabbit serum linear peptides / Rabbit serum looped peptides / Binding of a rabbit serum to linear peptides of protein N of SARS-CoV Urbani (Rabbit serum linear peptides) / Binding of a rabbit serum to looped/cyclic peptides of protein N of SARS-CoV Urbani (Rabbit serum looped peptides): unit not given here
[3] = test system: antibodies in sera from SARS patients (sera 1a, 1b, 2, 6, 37, 62, London, SARS-yellow, SARS-green); format: binding, human; parameters: Binding of serum 6 to linear peptides of protein X1 of SARS-CoV Urbani / Binding of serum 37 to linear peptides of protein X1 of SARS-CoV Urbani / Binding of serum 6 to looped/cyclic peptide (PEPSCAN-ELISA) / Binding of serum 37 to looped/cyclic peptide (PEPSCAN-ELISA) / Binding of serum 37 to looped/cyclic peptides of protein X1 of SARS-CoV Urbani / Binding of serum 6 to linear peptides of protein X2 / Binding of serum 37 to linear peptides of protein X2 / Binding of serum 37 to looped/cyclic peptides of protein X2 of SARS-CoV Urbani / Binding of serum 6 to linear peptides of protein M of SARS-CoV Urbani / Binding of serum 37 to linear peptides of protein M of SARS-CoV Urbani / Binding of serum 6 to looped/cyclic peptides of protein M of SARS-CoV Urbani / Binding of serum 37 to looped/cyclic peptides of protein M of SARS-CoV Urbani / Binding of serum 6 to linear peptides of protein X3 of SARS-CoV Urbani / Binding of serum 37 to linear peptides of protein X3 of SARS-CoV Urbani / Binding of serum 37 to looped/cyclic peptides of protein X3 of SARS-CoV Urbani / Binding of serum 6 to linear peptides of protein X4 of SARS-CoV Urbani / Binding of serum 37 to linear peptides of protein X4 of SARS-CoV Urbani / Binding of serum 37 to looped/cyclic peptides of protein X4 of SARS-CoV Urbani / Binding of serum 6 to linear peptides of protein X5 of SARS-CoV Urbani / Binding of serum 37 to linear peptides of protein X5 of SARS-CoV Urbani / Binding of serum 37 to looped/cyclic peptides of protein X5 of SARS-CoV Urbani / Binding of serum 6 to linear peptides of protein N of SARS-CoV Urbani / Binding of serum 37 to linear peptides of protein N of SARS-CoV Urbani / Binding of serum 6 to linear peptide (PEPSCAN-ELISA) / Binding of serum 1a to looped/cyclic peptides of protein N of SARS-CoV Urbani / Binding of serum 1b to looped/cyclic peptides of protein N of SARS-CoV Urbani / Binding of serum 2 to looped/cyclic peptides of protein N of SARS-CoV Urbani / Binding of serum 6 to looped/cyclic peptides of protein N of SARS-CoV Urbani / Binding of serum 37 to looped/cyclic peptides of protein N of SARS-CoV Urbani / Binding of serum 62 to looped/cyclic peptides of protein N of SARS-CoV Urbani / Binding of serum London to looped/cyclic peptides of protein N of SARS-CoV Urbani / Binding of serum SARS-green to looped/cyclic peptides of protein N of SARS-CoV Urbani: unit not given here
[4] = test system: recombinant human anti-SARS-CoV antibody 03-018; format: binding; parameters: Binding of antibody 03-018 to linear peptides of the N protein of SARS-CoV Urbani / Binding of antibody 03-018 to looped/cyclic peptides of the N protein of SARS-CoV Urbani: unit not given here

Row | Sequence | Binding of a rabbit serum to linear peptides of protein N of SARS-CoV Urbani (Rabbit serum linear peptides) [2] | Binding of a rabbit serum to looped/cyclic peptides of protein N of SARS-CoV Urbani (Rabbit serum looped peptides) [2] | Binding of serum 1a to looped/cyclic peptides of protein N of SARS-CoV Urbani [3] | Binding of serum 1b to looped/cyclic peptides of protein N of SARS-CoV Urbani [3] | Binding of serum 2 to looped/cyclic peptides of protein N of SARS-CoV Urbani [3] | Binding of serum 6 to looped/cyclic peptides of protein N of SARS-CoV Urbani [3] | Binding of serum 37 to looped/cyclic peptides of protein N of SARS-CoV Urbani [3] | Binding of serum 62 to looped/cyclic peptides of protein N of SARS-CoV Urbani [3] | Binding of serum London to looped/cyclic peptides of protein N of SARS-CoV Urbani [3] | Binding of serum SARS-green to looped/cyclic peptides of protein N of SARS-CoV Urbani [3] | Binding of serum SARS-yellow to looped/cyclic peptides of protein N of SARS-CoV Urbani [3] | Binding of antibody 03-018 to linear peptides of the N protein of SARS-CoV Urbani [4] | Binding of antibody 03-018 to looped/cyclic peptides of the N protein of SARS-CoV Urbani [4] | Binding of serum 1a to linear peptides of protein N of SARS-CoV Urbani [3] | Binding of serum 1b to linear peptides of protein N of SARS-CoV Urbani [3] | Binding of serum 2 to linear peptides of protein N of SARS-CoV Urbani [3] | Binding of serum 6 to linear peptides of protein N of SARS-CoV Urbani [3] | Binding of serum 37 to linear peptides of protein N of SARS-CoV Urbani [3] | Binding of serum 62 to linear peptides of protein N of SARS-CoV Urbani [3] | Binding of serum London to linear peptides of protein N of SARS-CoV Urbani [3] | also measured
1 | RGGSQASSRSSSRSR | 0.3 | 0.7 | 0.2 | 0.2 | 0.4 | 0.3 | 0.2 | 0.1 | 0.1 | 0.2 | 0.3 | 0.1 | 0.1 | – | – | – | – | – | – | – | Binding of Control Serum Blood-Bank to Looped peptides [1]: 0.4; Binding of Control serum Blood-bank to linear peptides [1]: 0.8; Binding of Control serum LUMC to linear peptides [1]: 0.8; Binding of Control serum LUMC to looped peptides [1]: 0.6; Binding of serum 1a to linear peptide (PEPSCAN-ELISA) [3]: 0.3; Binding of serum 1b to linear peptide (PEPSCAN-ELISA) [3]: 0.1; Binding of serum 2 to linear peptide (PEPSCAN-ELISA) [3]: 0.3; Binding of serum 6 to linear peptide (PEPSCAN-ELISA) [3]: 0.4; Binding of serum 37 to linear peptide (PEPSCAN-ELISA) [3]: 0.7; Binding of serum 62 to linear peptide (PEPSCAN-ELISA) [3]: 0.7; Binding of serum London to linear peptide (PEPSCAN-ELISA) [3]: 0.5; Binding of serum SARS-green to linear peptide (PEPSCAN-ELISA) [3]: 0.3; Binding of serum SARS-yellow to linear peptide (PEPSCAN-ELISA) [3]: 0.7
2 | PTEPKKDKKKKTDEA | 0.1 | 0.2 | 0.2 | 0.1 | 0.3 | 0.1 | 0.3 | 0.3 | 0.3 | 0.0 | 0.2 | 0.1 | 0.2 | 0.2 | 0.1 | 2.0 | 0.2 | 0.6 | 0.7 | 0.5 | Control Serum Blood-Bank Looped peptides [1]: 0.4; Control serum Blood-bank linear peptides [1]: 0.6; Control serum LUMC linear peptides [1]: 0.6; Control serum LUMC looped peptides [1]: 0.3; Binding of serum SARS-green to linear peptides of protein N of SARS-CoV Urbani [3]: 0.2; Binding of serum SARS-yellow to linear peptides of protein N of SARS-CoV Urbani [3]: 0.5
3 | ELRFPRGQGVPINTN | 0.1 | 0.4 | 0.4 | 0.3 | 0.5 | 0.3 | 0.7 | 0.6 | 0.5 | 0.7 | 0.4 | 0.1 | 0.2 | 0.2 | 0.1 | 0.3 | 0.1 | 0.7 | 0.7 | 0.5 | Binding of Control Serum Blood-Bank to Looped peptides [1]: 0.7; Binding of Control serum Blood-bank to linear peptides [1]: 0.6; Binding of Control serum LUMC to linear peptides [1]: 0.8; Binding of Control serum LUMC to looped peptides [1]: 0.7; Binding of serum SARS-green to linear peptides of protein N of SARS-CoV Urbani [3]: 0.4; Binding of serum SARS-yellow to linear peptides of protein N of SARS-CoV Urbani [3]: 0.6
4 | AADMDDFSRQLQNSM | 0.2 | 0.3 | 0.3 | 0.2 | 0.3 | 1.6 | 0.5 | 0.3 | 0.2 | 0.2 | 0.2 | 0.2 | 0.2 | 0.3 | 0.2 | 0.2 | 1.2 | 0.7 | 0.6 | 0.7 | Control Serum Blood-Bank Looped peptides [1]: 0.4; Control serum Blood-bank linear peptides [1]: 0.8; Control serum LUMC linear peptides [1]: 0.7; Control serum LUMC looped peptides [1]: 0.3; Binding of serum SARS-green to linear peptides of protein N of SARS-CoV Urbani [3]: 0.4; Binding of serum SARS-yellow to linear peptides of protein N of SARS-CoV Urbani [3]: 0.7
